Activity calls are given as the source filed them. No rule for the calls is given here.
System: CCRIS mutagenicity, Ames/micronucleus/aberration tests
Experiment: CCRIS mutagenicity studies
[1] = Test System: AMES SALMONELLA TYPHIMURIUM, Strain/Indicator: TA98, Metabolic Activation: NONE, Method: PREINCUBATION
[2] = Test System: AMES SALMONELLA TYPHIMURIUM, Strain/Indicator: TA100, Metabolic Activation: NONE, Method: PREINCUBATION
[3] = Test System: AMES SALMONELLA TYPHIMURIUM, Strain/Indicator: TA100, Metabolic Activation: NONE, Method: STANDARD PLATE

SMILES: ClCC(Br)CBr (stereo not given)
- mutagenic call (End Point: IN VITRO CHROMOSOMAL ABERRATIONS, Test System: CHO CELLS, Metabolic Activation: NONE): active; positive
- mutagenic call (End Point: IN VITRO CHROMOSOMAL ABERRATIONS, Test System: CHO CELLS, Metabolic Activation: RAT, LIVER, S-9, AROCLOR 1254): active; positive
- mutagenic call (Test System: AMES SALMONELLA TYPHIMURIUM, Strain/Indicator: TA97, Metabolic Activation: HAMSTER, LIVER, S-9, AROCLOR 1254 (10%), Method: PREINCUBATION): active; positive
- mutagenic call (Test System: AMES SALMONELLA TYPHIMURIUM, Strain/Indicator: TA97, Metabolic Activation: NONE, Method: PREINCUBATION): inactive; negative
- mutagenic call (Test System: AMES SALMONELLA TYPHIMURIUM, Strain/Indicator: TA97, Metabolic Activation: RAT, LIVER, S-9, AROCLOR 1254 (10%), Method: PREINCUBATION): active; positive
- mutagenic call (Test System: AMES SALMONELLA TYPHIMURIUM, Strain/Indicator: TA98, Metabolic Activation: HAMSTER, LIVER, S-9, AROCLOR 1254 (10%), Method: PREINCUBATION): active; positive
- mutagenic call (Test System: AMES SALMONELLA TYPHIMURIUM, Strain/Indicator: TA98, Metabolic Activation: NONE, Method: FLASK ASSAY): inactive; negative
- mutagenic call [1]: inactive; negative
- mutagenic call (Test System: AMES SALMONELLA TYPHIMURIUM, Strain/Indicator: TA98, Metabolic Activation: RAT, LIVER, S-9, AROCLOR 1254 (10%), Method: PREINCUBATION): inactive; negative
- mutagenic call (Test System: AMES SALMONELLA TYPHIMURIUM, Strain/Indicator: TA98, Metabolic Activation: RAT, LIVER, S-9, AROCLOR 1254, Method: FLASK ASSAY): active; positive
- mutagenic call (Test System: AMES SALMONELLA TYPHIMURIUM, Strain/Indicator: TA100, Metabolic Activation: HAMSTER, LIVER, S-9, AROCLOR 1254 (10%), Method: PREINCUBATION): active; positive
- mutagenic call (Test System: AMES SALMONELLA TYPHIMURIUM, Strain/Indicator: TA100, Metabolic Activation: NONE, Method: FLASK ASSAY): inactive; negative
- mutagenic call [2]: inactive; negative
- mutagenic call [3]: inactive; negative
- mutagenic call (Test System: AMES SALMONELLA TYPHIMURIUM, Strain/Indicator: TA100, Metabolic Activation: NONE, Method: SUSPENSION/PLATE): inactive; negative
- mutagenic call (Test System: AMES SALMONELLA TYPHIMURIUM, Strain/Indicator: TA100, Metabolic Activation: RAT TESTICULAR CELLS, Method: STANDARD PLATE): inactive; negative
- mutagenic call (Test System: AMES SALMONELLA TYPHIMURIUM, Strain/Indicator: TA100, Metabolic Activation: RAT, HEPATOCYTES, AROCLOR 1254, Method: STANDARD PLATE): active; positive
- mutagenic call (Test System: AMES SALMONELLA TYPHIMURIUM, Strain/Indicator: TA100, Metabolic Activation: RAT, HEPATOCYTES, Method: STANDARD PLATE): active; positive
- mutagenic call (Test System: AMES SALMONELLA TYPHIMURIUM, Strain/Indicator: TA100, Metabolic Activation: RAT, LIVER, HEPATOCYTES, Method: SUSPENSION/PLATE): active; positive
- mutagenic call (Test System: AMES SALMONELLA TYPHIMURIUM, Strain/Indicator: TA100, Metabolic Activation: RAT, LIVER, MICROSOMES, AROCLOR 1254, Method: PREINCUBATION): active; positive
- mutagenic call (Test System: AMES SALMONELLA TYPHIMURIUM, Strain/Indicator: TA100, Metabolic Activation: RAT, LIVER, MICROSOMES, PHENOBARBITAL, NADPH COFACTORS, Method: STANDARD PLATE): active; positive
- mutagenic call (Test System: AMES SALMONELLA TYPHIMURIUM, Strain/Indicator: TA100, Metabolic Activation: RAT, LIVER, MICROSOMES, PHENOBARBITAL, Method: PREINCUBATION): active; positive
- mutagenic call (Test System: AMES SALMONELLA TYPHIMURIUM, Strain/Indicator: TA100, Metabolic Activation: RAT, LIVER, MICROSOMES, PHENOBARBITAL, Method: STANDARD PLATE): inactive; negative
- mutagenic call (Test System: AMES SALMONELLA TYPHIMURIUM, Strain/Indicator: TA100, Metabolic Activation: RAT, LIVER, MICROSOMES, Method: PREINCUBATION): active; positive
- mutagenic call (Test System: AMES SALMONELLA TYPHIMURIUM, Strain/Indicator: TA100, Metabolic Activation: RAT, LIVER, S-9, AROCLOR 1254 (10%), Method: PREINCUBATION): active; positive
- mutagenic call (Test System: AMES SALMONELLA TYPHIMURIUM, Strain/Indicator: TA100, Metabolic Activation: RAT, LIVER, S-9, AROCLOR 1254, Method: FLASK ASSAY): active; positive
- mutagenic call (Test System: AMES SALMONELLA TYPHIMURIUM, Strain/Indicator: TA100, Metabolic Activation: RAT,TESTICULAR CELLS, AROCLOR 1254, Method: STANDARD PLATE): inactive; negative
- mutagenic call (Test System: AMES SALMONELLA TYPHIMURIUM, Strain/Indicator: TA100, Metabolic Activation: S-9 MIX, Method: STANDARD PLATE): active; positive
- mutagenic call (Test System: AMES SALMONELLA TYPHIMURIUM, Strain/Indicator: TA1535, Metabolic Activation: HAMSTER, LIVER, S-9, AROCLOR 1254 (10%), Method: PREINCUBATION): active; positive
- mutagenic call (Test System: AMES SALMONELLA TYPHIMURIUM, Strain/Indicator: TA1535, Metabolic Activation: NONE, Method: FLASK ASSAY): active; positive
- mutagenic call (Test System: AMES SALMONELLA TYPHIMURIUM, Strain/Indicator: TA1535, Metabolic Activation: NONE, Method: PREINCUBATION): inactive; negative
- mutagenic call (Test System: AMES SALMONELLA TYPHIMURIUM, Strain/Indicator: TA1535, Metabolic Activation: RAT, LIVER, S-9, AROCLOR 1254 (10%), Method: PREINCUBATION): active; positive
- mutagenic call (Test System: AMES SALMONELLA TYPHIMURIUM, Strain/Indicator: TA1535, Metabolic Activation: RAT, LIVER, S-9, AROCLOR 1254, Method: FLASK ASSAY): active; positive
- mutagenic call (Test System: AMES SALMONELLA TYPHIMURIUM, Strain/Indicator: TA1537, Metabolic Activation: HAMSTER, LIVER, S-9, AROCLOR 1254 (10%), Method: PREINCUBATION): inactive; negative
- mutagenic call (Test System: AMES SALMONELLA TYPHIMURIUM, Strain/Indicator: TA1537, Metabolic Activation: NONE, Method: FLASK ASSAY): inactive; negative
- mutagenic call (Test System: AMES SALMONELLA TYPHIMURIUM, Strain/Indicator: TA1537, Metabolic Activation: RAT, LIVER, S-9, AROCLOR 1254 (10%), Method: PREINCUBATION): inactive; negative
- mutagenic call (Test System: AMES SALMONELLA TYPHIMURIUM, Strain/Indicator: TA1537, Metabolic Activation: RAT, LIVER, S-9, AROCLOR 1254, Method: FLASK ASSAY): inactive; negative
- mutagenic call (Test System: AMES SALMONELLA TYPHIMURIUM, Strain/Indicator: TA1538, Metabolic Activation: NONE, Method: FLASK ASSAY): inactive; negative
- mutagenic call (Test System: AMES SALMONELLA TYPHIMURIUM, Strain/Indicator: TA1538, Metabolic Activation: RAT, LIVER, S-9, AROCLOR 1254, Method: FLASK ASSAY): inactive; negative
- mutagenic call (Test System: MOUSE LYMPHOMA, Strain/Indicator: L5178Y (TK+/TK-), Metabolic Activation: NONE, Method: SUSPENSION/PLATE): active; positive
- mutagenic call (Test System: MOUSE LYMPHOMA, Strain/Indicator: L5178Y (TK+/TK-), Metabolic Activation: RAT, LIVER, S-9, AROCLOR 1254, Method: SUSPENSION/PLATE): active; positive
- mutagenic call (Test System: UDS RODENT HEPATOCYTES, Strain/Indicator: THY INCORP (NON-S-PHASE), Metabolic Activation: AROCLOR 1254, Method: LIQUID SCINTILLATION COUNTING): inactive; negative
- mutagenic call (Test System: UDS RODENT HEPATOCYTES, Strain/Indicator: THY INCORP (NON-S-PHASE), Metabolic Activation: NONE, Method: LIQUID SCINTILLATION COUNTING): active; positive

SMILES: CCCCCCC(CCCC)COc1ccc(-c2ccc(-c3ccc(-c4ccc(OCC(CCCC)CCCCCC)cc4)cc3)cc2)cc1 (stereo not given)
- mutagenic call (Test System: AMES SALMONELLA TYPHIMURIUM, Strain/Indicator: TA1538, Metabolic Activation: NONE, Method: STANDARD PLATE): inactive; negative
- mutagenic call (Test System: AMES SALMONELLA TYPHIMURIUM, Strain/Indicator: TA1538, Metabolic Activation: RAT, LIVER, S-9, AROCLOR 1254, Method: STANDARD PLATE): inactive; negative

SMILES: COC(=O)C1CSC2C(Cl)=C(Cl)C(=O)N12 (stereo not given)
- mutagenic call [3]: active; positive

SMILES: [Br][Pt-2]([Br])([Br])([Br])([Br])[Br]
- mutagenic call [1]: inactive; negative
- mutagenic call (Test System: AMES SALMONELLA TYPHIMURIUM, Strain/Indicator: TA98, Metabolic Activation: RAT, LIVER, S-9, AROCLOR 1254, Method: PREINCUBATION): inactive; negative
- mutagenic call [2]: inactive; negative
- mutagenic call (Test System: AMES SALMONELLA TYPHIMURIUM, Strain/Indicator: TA100, Metabolic Activation: RAT, LIVER, S-9, AROCLOR 1254, Method: PREINCUBATION): inactive; negative
